{"source": "patent US20180298405A1", "about": "“METHODS AND COMPOSITIONS TO INCREASE HUMAN SOMATIC CELL NUCLEAR TRANSFER (SCNT) EFFICIENCY BY REMOVING HISTONE H3-LYSINE TRIMETHYLATION, AND DERIVATION OF HUMAN NT-ESC” (CHILDREN'S MEDICAL CENTER CORPORATION, priority 2015, published 2018)", "test_system": "reprogramming resistant regions (RRRs) / ZGA genes", "test": "RNA-seq of late 8-cell human SCNT embryos with or without KDM4A mRNA injection (ZGA of RRRs, KDM4A-responsive genes)", "assay_type": "cell-based", "source_text": "A sliding window (size 20 kb, step size 10 kb) was used to assess the genome-wide expression level of 4-cell and 8-cell human embryos. For each window, the expression level was quantified with normalized RPM (reads per millions of uniquely mapped reads). […] These activated regions were classed into three groups based on their expression differences in human SCNT and IVF 8-cell embryos.\nThe SCNT embryos used for ZGA analysis were generated using oocytes donated by a single healthy person (#64) and dermal fibroblast cells from an AMD patient (DFB-8). SCNT and IVF embryos were cultured up to late 8-cell stage, when the compaction of blastomeres is initiated, then they were treated briefly with acid Tyrode solution to remove zona pellucida. To prepare for the 8-cell SCNT embryo, oocytes from a single oocyte donor, and skin fibroblast cells from a single somatic nuclear donor were used. All the procedures are the same as described in the “Human SCNT procedure and KMD4A mRNA injection” section. Only embryos that reached the late 8-cell stage synchronically 74 hours post activation were collected and used for this experiment.\nFor preparation of the control IVF embryos, several donated early 8-cell stage IVF embryos were thawed and cultured for 5-7 hours to allow them to reach late 8-cell stage before being processed. After removal of the zona pellucida, the denuded embryos were washed 3 times in PBS, loaded into RNAse and DNAse free PCR tubes, spin downed, and snap frozen in liquid nitrogen. Then, they were kept at −80° C. until use. As controls, dermal fibroblast cells of somatic nuclear donors were also prepared. Those fibroblast cells were cultured in a 25 cm^2 flask in DMEM 10% FBS, and approximately 10,000 cells/donor were collected, snap frozen, and stored at −80° C. until use.\nFive 8-cell embryos for each group were directly lysed and used for cDNA synthesis using SMART-Seq v4 Ultra Low Input RNA Kit (Clontech). For MEF donor, 10 ng total RNA was used for cDNA synthesis using SMART-Seq v4 Ultra Low Input RNA Kit. After amplification, the cDNA samples were fragmented using Covaris sonicator M220 to an average size of 150 bp (Covaris). Sequencing libraries were made with the fragmented DNA using NEBNext Ultra DNA Library Prep Kit for Illumina according to manufacturer's instruction (New England Biolabs) with different barcodes. For each RNA-seq analysis of hESCs, 1 μg total RNA was used for mRNA purification. Barcoded RNA-seq libraries were generated using NEBNext Ultra Directional RNA Library Prep Kit for Illumina (New England Biolabs). Single end 50 bp sequencing was performed on a HiSeq 2500 sequencer (Illumina). Sequencing reads were mapped to the human genome (hg19) with Tophat2. All programs were performed with default settings (unless otherwise specified). At least 22 million uniquely mapped reads were obtained for each sequencing library, and subsequently assembled into transcripts guided by the reference annotation (Refseq gene models) with Cufflinks v2.0.2. Expression level of each gene was quantified with normalized FPKM (fragments per kilobase of exon per million mapped fragments). Statistical analyses were performed with R (available at: “www.r-project.org/”). Independent 2 group Wilcoxon rank sum tests were used to compare distributions using the wilcox.test function in R. Pearson's r coefficient was calculated using the cor function with default parameters. The hierarchical clustering analysis of the global gene expression pattern in different samples was carried out using heatmap.2 function (gplots package) in R.", "key": {"[1]": {"conditions": "8-cell SCNT embryos, FC>2 versus non-injected"}}}
{"substance": "KDM4A mRNA: in vitro transcribed mRNA of full length human KDM4A/JHDM3A cDNA, an H3K9me3 demethylase (SEQ ID NO: 1)", "values": [{"measurement": "fraction of the 318 RRRs markedly up-regulated", "setting": "[1]", "value": 50, "unit": "%"}, {"measurement": "number of the 318 RRRs markedly up-regulated", "setting": "[1]", "value": 158}, {"measurement": "number of genes significantly up-regulated (KDM4A-responsive genes)", "setting": "8-cell SCNT embryos, FPKM>5, FC>2", "value": 206}, {"measurement": "12-Sep Fold Change (log2) [KDM4A SCNT/Control SCNT]", "setting": "8-cell embryos", "value": 2, "unit": "log2"}, {"measurement": "AASDH Fold Change (log2) [KDM4A SCNT/Control SCNT]", "setting": "8-cell embryos", "value": 1.19, "unit": "log2"}, {"measurement": "ACBD5 Fold Change (log2) [KDM4A SCNT/Control SCNT]", "setting": "8-cell embryos", "value": 1.32, "unit": "log2"}, {"measurement": "ALG5 Fold Change (log2) [KDM4A SCNT/Control SCNT]", "setting": "8-cell embryos", "value": 1.89, "unit": "log2"}, {"measurement": "ALPPL2 Fold Change (log2) [KDM4A SCNT/Control SCNT]", "setting": "8-cell embryos", "value": 1.25, "unit": "log2"}, {"measurement": "APOC1P1 Fold Change (log2) [KDM4A SCNT/Control SCNT]", "setting": "8-cell embryos", "value": 1.03, "unit": "log2"}, {"measurement": "ATP5J2-PTCD1 Fold Change (log2) [KDM4A SCNT/Control SCNT]", "setting": "8-cell embryos", "value": 5.53, "unit": "log2"}, {"measurement": "BEX2 Fold Change (log2) [KDM4A SCNT/Control SCNT]", "setting": "8-cell embryos", "value": 1.05, "unit": "log2"}, {"measurement": "BLVRB Fold Change (log2) [KDM4A SCNT/Control SCNT]", "setting": "8-cell embryos", "value": 1.56, "unit": "log2"}, {"measurement": "BTAF1 Fold Change (log2) [KDM4A SCNT/Control SCNT]", "setting": "8-cell embryos", "value": 1.93, "unit": "log2"}, {"measurement": "BTK Fold Change (log2) [KDM4A SCNT/Control SCNT]", "setting": "8-cell embryos", "value": 1.09, "unit": "log2"}, {"measurement": "BUD31 Fold Change (log2) [KDM4A SCNT/Control SCNT]", "setting": "8-cell embryos", "value": 1.19, "unit": "log2"}, {"measurement": "C1D Fold Change (log2) [KDM4A SCNT/Control SCNT]", "setting": "8-cell embryos", "value": 1.67, "unit": "log2"}, {"measurement": "C2orf74 Fold Change (log2) [KDM4A SCNT/Control SCNT]", "setting": "8-cell embryos", "value": 1.28, "unit": "log2"}, {"measurement": "C11orf67 Fold Change (log2) [KDM4A SCNT/Control SCNT]", "setting": "8-cell embryos", "value": 1.34, "unit": "log2"}, {"measurement": "C12orf60 Fold Change (log2) [KDM4A SCNT/Control SCNT]", "setting": "8-cell embryos", "value": 1.78, "unit": "log2"}, {"measurement": "C16orf91 Fold Change (log2) [KDM4A SCNT/Control SCNT]", "setting": "8-cell embryos", "value": 1.24, "unit": "log2"}, {"measurement": "C17orf89 Fold Change (log2) [KDM4A SCNT/Control SCNT]", "setting": "8-cell embryos", "value": 1.09, "unit": "log2"}, {"measurement": "C18orf56 Fold Change (log2) [KDM4A SCNT/Control SCNT]", "setting": "8-cell embryos", "value": 1.43, "unit": "log2"}, {"measurement": "C20orf7 Fold Change (log2) [KDM4A SCNT/Control SCNT]", "setting": "8-cell embryos", "value": 2.14, "unit": "log2"}, {"measurement": "CAB39L Fold Change (log2) [KDM4A SCNT/Control SCNT]", "setting": "8-cell embryos", "value": 1.23, "unit": "log2"}, {"measurement": "CCAR1 Fold Change (log2) [KDM4A SCNT/Control SCNT]", "setting": "8-cell embryos", "value": 1.15, "unit": "log2"}, {"measurement": "CCDC86 Fold Change (log2) [KDM4A SCNT/Control SCNT]", "setting": "8-cell embryos", "value": 1.1, "unit": "log2"}, {"measurement": "CCL2 Fold Change (log2) [KDM4A SCNT/Control SCNT]", "setting": "8-cell embryos", "value": 3.05, "unit": "log2"}, {"measurement": "CCL15 Fold Change (log2) [KDM4A SCNT/Control SCNT]", "setting": "8-cell embryos", "value": 2.82, "unit": "log2"}, {"measurement": "CELA3B Fold Change (log2) [KDM4A SCNT/Control SCNT]", "setting": "8-cell embryos", "value": 1.63, "unit": "log2"}, {"measurement": "CENPC1 Fold Change (log2) [KDM4A SCNT/Control SCNT]", "setting": "8-cell embryos", "value": 1.1, "unit": "log2"}, {"measurement": "CLC Fold Change (log2) [KDM4A SCNT/Control SCNT]", "setting": "8-cell embryos", "value": 3.69, "unit": "log2"}, {"measurement": "CLDN6 Fold Change (log2) [KDM4A SCNT/Control SCNT]", "setting": "8-cell embryos", "value": 1.65, "unit": "log2"}, {"measurement": "CLK4 Fold Change (log2) [KDM4A SCNT/Control SCNT]", "setting": "8-cell embryos", "value": 1.21, "unit": "log2"}, {"measurement": "CNKSR3 Fold Change (log2) [KDM4A SCNT/Control SCNT]", "setting": "8-cell embryos", "value": 1.48, "unit": "log2"}, {"measurement": "CNPY4 Fold Change (log2) [KDM4A SCNT/Control SCNT]", "setting": "8-cell embryos", "value": 1.77, "unit": "log2"}, {"measurement": "COX7B2 Fold Change (log2) [KDM4A SCNT/Control SCNT]", "setting": "8-cell embryos", "value": 3.15, "unit": "log2"}, {"measurement": "COX17 Fold Change (log2) [KDM4A SCNT/Control SCNT]", "setting": "8-cell embryos", "value": 1.44, "unit": "log2"}, {"measurement": "CSAG1 Fold Change (log2) [KDM4A SCNT/Control SCNT]", "setting": "8-cell embryos", "value": 3.27, "unit": "log2"}, {"measurement": "CSTF3 Fold Change (log2) [KDM4A SCNT/Control SCNT]", "setting": "8-cell embryos", "value": 1.29, "unit": "log2"}, {"measurement": "CUL2 Fold Change (log2) [KDM4A SCNT/Control SCNT]", "setting": "8-cell embryos", "value": 1.29, "unit": "log2"}, {"measurement": "CXorf61 Fold Change (log2) [KDM4A SCNT/Control SCNT]", "setting": "8-cell embryos", "value": 2.18, "unit": "log2"}, {"measurement": "DDX26B Fold Change (log2) [KDM4A SCNT/Control SCNT]", "setting": "8-cell embryos", "value": 1.14, "unit": "log2"}, {"measurement": "DEFB122 Fold Change (log2) [KDM4A SCNT/Control SCNT]", "setting": "8-cell embryos", "value": 1.06, "unit": "log2"}, {"measurement": "DLEU7 Fold Change (log2) [KDM4A SCNT/Control SCNT]", "setting": "8-cell embryos", "value": 4.91, "unit": "log2"}, {"measurement": "DNASE2 Fold Change (log2) [KDM4A SCNT/Control SCNT]", "setting": "8-cell embryos", "value": 1.11, "unit": "log2"}, {"measurement": "DRAM1 Fold Change (log2) [KDM4A SCNT/Control SCNT]", "setting": "8-cell embryos", "value": 1.6, "unit": "log2"}, {"measurement": "ECE2 Fold Change (log2) [KDM4A SCNT/Control SCNT]", "setting": "8-cell embryos", "value": 1.09, "unit": "log2"}, {"measurement": "EIF1AD Fold Change (log2) [KDM4A SCNT/Control SCNT]", "setting": "8-cell embryos", "value": 1.18, "unit": "log2"}, {"measurement": "ELL2 Fold Change (log2) [KDM4A SCNT/Control SCNT]", "setting": "8-cell embryos", "value": 1.01, "unit": "log2"}, {"measurement": "FAM9A Fold Change (log2) [KDM4A SCNT/Control SCNT]", "setting": "8-cell embryos", "value": 3.83, "unit": "log2"}, {"measurement": "FAM19A3 Fold Change (log2) [KDM4A SCNT/Control SCNT]", "setting": "8-cell embryos", "value": 2.58, "unit": "log2"}]}
